Data reported in patent US20240382448A1, “METHODS FOR TREATING CORONAVIRUS INFECTION” (priority 2021, published 2024).
Like-named read-outs stand apart in the source and are kept apart here.

Experiments:
[1] = system: Calu3 (ATCC, HTB-55) cells; settings: average of three replicates, (sample well/aggregated DMSOavg)*100
[2] = system: SARS-CoV-2 (isolate USA WA1/2020); format: cell-based; settings: Calu3 cells, 2 h pretreatment, MOI=0.5, 48 h post-infection, compared to DMSO control

| Structure (SMILES) | Viability ([1]; 0.02 μM) | Viability ([1]; 0.07 μM) | Viability ([1]; 0.21 μM) | Viability ([1]; 0.62 μM) | Viability ([1]; 1.85 μM) | Viability ([1]; 5.56 μM) | Viability ([1]; 16.67 μM) | Viability ([1]; 50.00 μM) | % Infection ([2]; 0.02 μM) [%] | % Infection ([2]; 0.07 μM) [%] | % Infection ([2]; 0.21 μM) [%] | % Infection ([2]; 0.62 μM) [%] | % Infection ([2]; 1.85 μM) [%] | % Infection ([2]; 5.56 μM) [%] | % Infection ([2]; 16.67 μM) [%] | % Infection ([2]; 50.00 μM) [%] |
| --- | --- | --- | --- | --- | --- | --- | --- | --- | --- | --- | --- | --- | --- | --- | --- | --- |
| C[C@H]1[C@H](OC(=O)CCC(=O)O)O[C@@H]2O[C@@]3(C)CC[C@H]4[C@H](C)CC[C@@H]1[C@@]24OO3 [Artesunate] | 95.4 | 102.6 | 100.5 | 97.7 | 95.1 | 92.9 | 91.1 | 78.3 | 110.9 | 90.0 | 80.7 | 44.7 | 18.0 | 14.7 | 16.1 | 4.7 |
| C[C@H]1[C@@H](O)O[C@@H]2O[C@@]3(C)CC[C@H]4[C@H](C)CC[C@@H]1[C@@]24OO3 [Dihydroartemisinin] |  |  |  |  |  |  |  |  | 76.6 | 103.6 | 73.6 | 23.0 | 13.5 | 7.0 | 12.8 | 2.0 |
| COc1cc(-c2oc3cc(O)cc(O)c3c(=O)c2O)ccc1O [Isorhamnetin] | 99.6 | 99.6 | 99.4 | 98.8 | 101.0 | 99.8 | 83.7 | 73.0 | 93.6 | 79.5 | 103.8 | 60.4 | 83.8 | 5.3 | 7.9 |  |
